Laboratory results as given in patent US12116387B2, “Antimicrobial peptides” (priority 2021, dated 2024).
“Also recorded” adds a separate entry of the source.

Experiments:
[1] = system: E. coli ATCC8739 and clinical isolate E. coli 1812446 (KPC-positive); assay: Systemic sepsis infection mouse model, E. coli strains; assay type: in vivo; conditions: 5 mg Kg^−1 i.p., 3 h post-infection
Method: (§1) FIG. 5A-5I pertains to a study of the anti-infective activity of mast-MO against Gram-negative and Gram-positive pathogens in a lethal sepsis infection model. In FIG. 5A mice were infected with bacteria, treated with each peptide or antibiotic and monitored for 8 days. Survival and cell counts after 24 h, respectively, are shown for E. coli ATCC8739 (2×10^4 CFU/mL inoculum) FIG. 5B and FIG. 5C, S. aureus ATCC29213 (2×10^9 CFU/mL inoculum) FIG. 5D and FIG. 5E, E. coli 1812446 (KPC-positive) (2×10^4 CFU inoculum) FIG. 5F and FIG. 5G, and S. aureus (MRSA) ATCC33591 (2×10^9 CFU inoculum) FIG. 5H and FIG. 5I. Mice were treated intraperitoneally (i.p.) with 1, 5 and 10 mg Kg^−1 of mast-L, mast-MO or 10 mg Kg^−1 of the antibiotics gentamicin and imipenem. PBS was used as a control for the untreated group of mice. Treatments were administered 3 h post-infection. Data are expressed as the mean±standard deviation. Statistical analysis was performed using Bonferroni test. […], **p<0.01, ***p<0.001 compared to the untreated control.
(§2) Systemic bacterial infection mouse model. […] Animals were humanely killed 24 h after bacterial administration.

[2] = system: E. coli and S. aureus strains; assay: Systemic infection experiments, summary over all strains; conditions: 10 mg Kg^−1
Method: To determine the anti-infective activity of mast-MO in a pre-clinical mouse model, the ability of the peptide to kill pathogenic and drug-resistant E. coli and S. aureus strains was tested in a systemic sepsis infection mouse model (FIG. 5). The minimal bacterial load resulting in a lethal dose (LD100) 24 h post-intraperitoneal injection was first determined. […] Mice were infected with the LD100 of bacteria and treated 3 h post-infection with either mast-L (1 and 5 mg Kg^−1) or mast-MO (1, 5 and 10 mg Kg^−1), which were also administered intraperitoneally.
Systemic bacterial infection mouse model. […] The experiment was performed by intraperitoneal (i.p.) injection of the tested peptides to groups of 10 C57BL/6 mice. Each mouse was injected with a 0.5 mL solution of freshly prepared of peptides in PBS. The doses of peptide administered per mouse were 0, 10, 30, 50, 70 and 90 mg Kg^−1 of body weight. Animals were directly inspected for adverse effects for 6 h, and mortality was monitored for 7 days thereafter. Differences between groups were analysed using the Fisher exact test (differences were considered to be statistically significant when the P value was <0.05). Briefly, E. coli ATCC8739 and E. coli 1812446 or S. aureus ATCC 29213 and S. aureus (MRSA) ATCC33591 were plated on tryptic soy agar plus 5% sheep blood (blood agar, Himedia, India) from a frozen stock. Following 24 h of incubation of the agar plate, three isolated colonies were transferred to 1 mL of BHI. The broth culture was incubated overnight (12-16 h) at 37° C. with shaking. […] Mice were challenged with either strain of E. coli ATCC8739 and E. coli 1812446 or S. aureus ATC29213 and S. aureus (MRSA) ATCC33591 in a final volume of 200 μL of PBS by intraperitoneal injection (i.p.). The day of challenge was designated as day 1 of the experiment. Three hours after bacterial injection, mice (n=5) were treated, intraperitoneally, with different concentrations of peptides (1, 5 or 10 mg Kg^−1), LL-37, gentamicin and 10 mg Kg^−1 of imipenem or PBS for 8 days. For bacterial load evaluation, 5 mice per group were used. […]

S. aureus MRSA ATCC33591 = assay: Systemic sepsis infection mouse model, MRSA; assay type: in vivo; conditions: 5 mg Kg^−1 i.p.
Method: as §1, §2

IL-12, TNFα, IL-6 = assay: Cytokines in peritoneal fluid of infected mice (ELISA); assay type: in vivo, C57BL/6 mice; conditions: tracked for 48 h; mast-MO 10 mg Kg^−1, mast-L 5 mg Kg^−1
Method: […] PBS and imipenem (10 mg Kg^−1) were used as negative and positive controls, respectively. Data were expressed as mean±standard deviation. Statistical analysis was performed using Bonferroni test. ***p<0.001 as significant compared to the control.
To test whether the FLPII motif within the mast-MO sequence led to increased immunomodulatory and chemotactic properties with respect to mast-L, ELISA experiments were performed using the peritoneal fluid collected from mice (FIG. 5a). C57BL/6 mice were infected with both Gram-negative and Gram-positive pathogens and administered either mast-L or mast-MO intraperitoneally. For mice infected with E. coli ATCC8739, we monitored the peritoneal cavity to detect and quantify the release and presence of several immune mediators (FIG. 4E). […] This effect was similar to the positive control group of mice treated with […] (TGA) (FIG. 4B). […] After 24 h, the leukocyte recruitment levels in mast-MO-treated mice dropped to ˜10^6, likely attributed to the resolution of the infection by the peptide (FIGS. 5B and 5C). […] We monitored, via ELISAs, the cytokine profiles present within the peritoneal cavity of mice infected with E. coli ATCC8739 and S. aureus ATCC29213 (FIGS. 4E and FIG. 4F, respectively) and treated with a single dose of peptide. […]

[3] = system: different human and murine cell lines; assay: Hemolysis and cytotoxicity, text summary over the cell lines of Table 2; assay type: cell-based; conditions: range over cell lines
Method: (§3) Once the mechanisms by which the peptide targeted bacterial cells was elucidawted, the effect of the pentapeptide motif insertion on cytotoxicity against mammalian cells was evaluated.

[4] = system: human red blood cells (hRBCs); assay: Cytotoxicity / hemolysis against human red blood cells; assay type: cell-based; conditions: hRBCs
Method: as §3

[5] = system: murine macrophages monocytes (RAW 264.7); assay: Cytotoxicity against RAW 264.7 cells (MTT); assay type: cell-based; conditions: RAW 264.7 (Table 2)
leukocytes = assay: Leukocyte migration to the peritoneal cavity of mice infected with E. coli ATCC8739; assay type: in vivo, C57BL/6 mice; conditions: mast-MO 10 mg Kg^−1, mast-L 5 mg Kg^−1
Method: To test whether the FLPII motif within the mast-MO sequence led to increased immunomodulatory and chemotactic properties with respect to mast-L, ELISA experiments were performed using the peritoneal fluid collected from mice (FIG. 5a). C57BL/6 mice were infected with both Gram-negative and Gram-positive pathogens and administered either mast-L or mast-MO intraperitoneally. For mice infected with E. coli ATCC8739, we monitored the peritoneal cavity to detect and quantify the release and presence of several immune mediators (FIG. 4E). […] This effect was similar to the positive control group of mice treated with […] (TGA) (FIG. 4B). […] We monitored, via ELISAs, the cytokine profiles present within the peritoneal cavity of mice infected with E. coli ATCC8739 and S. aureus ATCC29213 (FIGS. 4E and FIG. 4F, respectively) and treated with a single dose of peptide. […]
Isolation of leukocytes from the peritoneal cavity of mice. Leukocyte migration into the peritoneal cavity of uninfected C57BL/6 mice treated with 10 mg Kg^−1 of peptides was evaluated to assess the chemotactic activity of the peptides, as previously described (11). […] Leukocyte counts present in the in peritoneal cavity of mice infected with E. coli ATCC 8739 were quantified. […] The results are expressed as the number of cells per cavity (48).

S. aureus ATCC29213 = assay: Systemic sepsis infection mouse model, S. aureus ATCC29213; assay type: in vivo; conditions: 5 mg Kg^−1 i.p.
Method: as §1, §2

[6] = system: murine fibroblasts (L929); assay: Cytotoxicity against L929 fibroblasts (MTT); assay type: cell-based; conditions: L929
Method: Mammalian cells toxicity assays. L929 mice fibroblasts (Rio de Janeiro Cell Bank) and SPCs were seeded in 96-well microtiter plates in a concentration of 1.0×10^5 cells per well, in DMEM medium, supplemented with different concentrations of tested peptides (1-600 μM). After 48 h incubation, a thiazolyl blue tetrazolium bromide (MTT) protocol was performed. Briefly, 60% of the medium was removed, and 10 μL of MTT (5 mg mL^−1) (Sigma, USA) solution was added to each well and the plate was incubated for 4 h, in 5% CO2, at 37° C. The blue formazan product generated was dissolved by the addition of 100 μL of 100% DMSO (Mallinckrodt, Germany) per well. Plates were then gently swirled for 5 min, at room temperature, to dissolve the precipitate. The absorbance was monitored at 575 nm using a microplate spectrophotometer (Bio-Tek, USA). Cytotoxicity was determined as a percentage of the maximum value after subtracting the background. The results were expressed as the percentage of each sample compared to the negative control (PBS buffer, pH 7.4) and cell culture was incubated in a lysis buffer (10 mM Tris, pH 7.4, 1 mM ethylenediamine tetraacetic acid (EDTA), and 0.1% Triton X-100).

Sequence: NLKALAALAKKIL [Mast-L]
- Survival [1]: 40 to 60%
- Toxicity when injected systemically in the infection model [2]: had to be euthanized; also recorded: led to toxicity
- Survival (S. aureus MRSA ATCC33591): 60%
- Pro-inflammatory cytokines IL-12, TNFα and IL-6 in the peritoneal cavity (IL-12, TNFα, IL-6): repressed
- Concentration hemolytic and toxic towards human and murine cell lines [3]: 7 to 50 µmol⁻¹
- Cytotoxic activity, Peptide Concentration [4]: 7 µmol/L
- Cytotoxic activity, Peptide Concentration [5]: 10 µmol/L
- Leukocyte recruitment over the time period tested, in words (leukocytes): did not significantly induce leukocyte recruitment
- Survival (S. aureus ATCC29213): 80%
- Cytotoxic activity, Peptide Concentration [6]: 10 µmol/L
